Source: patent US10155004B2, “17-hydroxy-17-pentafluoroethyl-estra-4,9(10)-dien-11-aryl derivatives, method of production thereof and use thereof for the treatment of diseases” (BAYER INTELLECTUAL PROPERTY GMBH, priority 2009, dated 2018)

Key:
[1] = Metabolic stability in human liver microsomes (HLM); assay type: in vitro ADME; details: from HLM half-life, well-stirred model, phase I reactions; 1 μM, 0.5 mg/ml protein
Experimental: EXAMPLE 18 METABOLIC STABILITY OF (11β,17β)-17-HYDROXY-11[4-(METHYLSULPHONYL)PHENYL]-17-(PENTAFLUOROETHYL)ESTRA-4,9-DIEN-3-ONE AND (11β,17β)-17-HYDROXY-11-[4′-(METHYLSULPHONYL)-BIPHENYL-4-YL]-17-(PENTAFLUOROETHYL)ESTRA-4,9-DIEN-3-ONE IN HUMAN LIVER MICROSOMES (HLM)
Isolated human liver microsomes (HLM) were used for assessing the metabolic stability of compounds of general formula I.
Incubations were carried out with 2.4 ml of HLM solution (0.5 mg/ml protein content), 30 μl of the test compound (final concentration 1 μM) and 0.6 ml of the cofactor mixture (=NADPH-generating system of 3 IU glucose-6-phosphate dehydrogenase, 14.6 mg glucose-6-phosphate, 1.2 mg NADP) at 37° C. in 100 mM phosphate buffer at pH 7.4. Samples are taken at 6 time points (2-60 min), precipitated with an equal volume of methanol and the recovery of the test substances used in the supernatant is determined by LC-MS/MS analysis. The intrinsic clearance of the substance in the liver microsome preparation can be calculated from the half-life found for the breakdown of the substance. Based on this, together with various physiological characteristics according to the well-stirred model, it is then possible to predict a (metabolic) in vivo clearance with respect to phase I reactions. […]

[2] = target: T1, human progesterone receptor A (Homo sapiens, UniProt P06401); assay: Progesterone receptor-antagonistic action in stably transfected SK-N-MC cells, MTV-LUC reporter (PR-A); assay type: cell-based; details: antagonism of 0.1 nmol/l promegestone, 24 hours, LUC reporter, read-out: Progesterone receptor A (PR-A) Potency IC50
T1 construct: expressed in transfected cells; host or cells: SK-N-MC human neuroblastoma cells, stably transfected
T1 sequence (P06401 1-769 isoform P06401-2): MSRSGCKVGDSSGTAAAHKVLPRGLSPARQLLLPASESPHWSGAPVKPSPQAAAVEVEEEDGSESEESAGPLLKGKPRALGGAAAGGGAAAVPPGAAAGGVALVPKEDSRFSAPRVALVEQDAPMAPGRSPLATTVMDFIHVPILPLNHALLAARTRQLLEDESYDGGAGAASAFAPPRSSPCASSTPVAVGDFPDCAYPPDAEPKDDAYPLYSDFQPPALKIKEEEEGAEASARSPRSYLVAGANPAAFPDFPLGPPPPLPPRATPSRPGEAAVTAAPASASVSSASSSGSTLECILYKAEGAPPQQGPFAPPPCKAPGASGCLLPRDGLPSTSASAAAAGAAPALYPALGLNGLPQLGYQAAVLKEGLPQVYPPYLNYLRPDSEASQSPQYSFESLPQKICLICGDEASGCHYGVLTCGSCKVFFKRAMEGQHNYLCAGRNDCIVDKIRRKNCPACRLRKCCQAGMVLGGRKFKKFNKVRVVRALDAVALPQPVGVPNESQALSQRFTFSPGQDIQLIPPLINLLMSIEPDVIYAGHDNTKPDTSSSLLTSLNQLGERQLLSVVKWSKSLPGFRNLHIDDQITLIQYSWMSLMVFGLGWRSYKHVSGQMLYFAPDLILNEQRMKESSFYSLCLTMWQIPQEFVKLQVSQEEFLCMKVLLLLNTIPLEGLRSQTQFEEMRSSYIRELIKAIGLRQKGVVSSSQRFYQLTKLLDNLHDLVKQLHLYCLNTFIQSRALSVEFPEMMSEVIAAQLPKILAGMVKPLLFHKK
Experimental: (§1) EXAMPLE 16 PROGESTERONE RECEPTOR-ANTAGONISTIC ACTION IN STABLE TRANSFECTANTS OF HUMAN NEUROBLASTOMA CELLS (SK-N-MC CELLS) WITH THE HUMAN PROGESTERONE A OR PROGESTERONE B RECEPTOR AND AN MTV-LUC REPORTER CONSTRUCT
(§2) SK-N-MC cells (human neuroblastoma cells), which have been stably transfected with plasmids, which express the human progesterone receptor B (pRChPR-B-neo) or the human progesterone receptor A (pRChPR-A-neo) and a reporter construct (pMMTV-LUC), were incubated for 24 hours either in the absence (negative control) or in the presence of increasing amounts of the respective test compound (0.01 nmol/l, 0.1 nmol/l 1 nmol/l, 10 nmol/l, 100 nmol/l and 1 μmol/l), in order to determine the agonistic efficacy. As positive control of reporter gene induction, the cells were treated with the synthetic gestagen promegestone (0.01 nmol/l, 0.1 nmol/l, 1 nmol/l, 10 nmol/l, 100 nmol/l and 1 μmol/l). For determination of the antagonistic activity, the cells were treated with 0.1 nmol/1 promegestone and additionally with increasing amounts of the respective test compound (0.01 nmol/l, 0.1 nmol/l, 1 nmol/l, 10 nmol/l, 100 nmol/l and 1 μmol/l). The activity of the LUC reporter gene (LUC=luciferase) was determined in the cell lysates and was measured as RLU (relative light units). All measured values are given as percentage efficacy and as EC50 or IC50 concentrations.
(§3) 11β-(4-Acetylphenyl)-20,20,21,21,21-pentafluoro-17-hydroxy-19-nor-17α-pregna-4,9-dien-3-one and 20,20,21,21,21-pentafluoro-17-hydroxy-11β-[4-(hydroxyacetyl)phenyl]-19-nor-17α-pregna-4,9-dien-3-one, very potent and therefore preferred examples from WO98/34947 and WO2008/058767, were tested as comparative compounds along with the test compound.

[3] = target: T2, human progesterone receptor B (Homo sapiens, UniProt P06401); assay: Progesterone receptor-antagonistic action in stably transfected SK-N-MC cells, MTV-LUC reporter (PR-B); assay type: cell-based; details: antagonism of 0.1 nmol/l promegestone, 24 hours, LUC reporter, read-out: Progesterone receptor B (PR-B) Potency IC50
T2 construct: expressed in transfected cells; host or cells: SK-N-MC human neuroblastoma cells, stably transfected
T2 sequence (P06401 1-933): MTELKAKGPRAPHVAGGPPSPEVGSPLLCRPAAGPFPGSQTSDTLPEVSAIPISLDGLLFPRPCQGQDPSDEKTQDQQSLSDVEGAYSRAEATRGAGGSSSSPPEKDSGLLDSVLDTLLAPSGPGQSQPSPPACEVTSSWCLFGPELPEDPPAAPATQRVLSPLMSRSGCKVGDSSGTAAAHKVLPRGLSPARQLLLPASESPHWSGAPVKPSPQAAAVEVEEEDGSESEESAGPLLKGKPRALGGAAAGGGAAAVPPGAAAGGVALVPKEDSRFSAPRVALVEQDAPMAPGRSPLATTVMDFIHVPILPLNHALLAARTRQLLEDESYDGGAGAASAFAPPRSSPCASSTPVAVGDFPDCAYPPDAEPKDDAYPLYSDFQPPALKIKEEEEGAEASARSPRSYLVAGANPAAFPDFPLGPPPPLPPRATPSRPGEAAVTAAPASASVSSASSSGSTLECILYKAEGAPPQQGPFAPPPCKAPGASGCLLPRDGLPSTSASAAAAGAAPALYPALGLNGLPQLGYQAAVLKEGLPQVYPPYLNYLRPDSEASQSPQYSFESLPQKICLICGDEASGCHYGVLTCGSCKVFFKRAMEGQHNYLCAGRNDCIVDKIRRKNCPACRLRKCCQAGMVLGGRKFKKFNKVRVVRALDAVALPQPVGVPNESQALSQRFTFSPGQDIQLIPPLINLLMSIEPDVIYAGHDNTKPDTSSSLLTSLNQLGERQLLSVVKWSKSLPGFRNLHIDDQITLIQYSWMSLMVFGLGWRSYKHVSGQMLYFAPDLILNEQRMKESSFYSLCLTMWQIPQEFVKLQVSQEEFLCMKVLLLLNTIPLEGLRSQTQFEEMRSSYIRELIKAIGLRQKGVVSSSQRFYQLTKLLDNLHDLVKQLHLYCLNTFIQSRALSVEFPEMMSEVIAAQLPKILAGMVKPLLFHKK
Experimental: as §1, §2, §3

- (metabolic) in vivo clearance in humans predicted [1]: < 0.17 mL/min/kg
- IC50 [2]: 0.011 nM
- IC50 [3]: 0.013 nM
Structure (SMILES): C[C@]12C[C@H](c3ccc(-c4ccc(S(C)(=O)=O)cc4)cc3)C3=C4CCC(=O)C=C4CC[C@H]3[C@@H]1CC[C@@]2(O)C(F)(F)C(F)(F)F [Example 10, (11β,17β)-17-hydroxy-11-[4′-(methylsulphonyl)biphenyl-4-yl]-17-(pentafluoroethy)estra-4,9-dien-3-one]
